pKd: −log10 of the molar value.
Target: T1, Lyp-CCPGCC (lymphoid-specific protein tyrosine phosphatase, PTPN22, engineered insertion mutant) (Homo sapiens, UniProt Q9Y2R2, INS199CCPGCC)
T1 sequence (Q9Y2R2 with tags, fused parts or gaps INS199CCPGCC): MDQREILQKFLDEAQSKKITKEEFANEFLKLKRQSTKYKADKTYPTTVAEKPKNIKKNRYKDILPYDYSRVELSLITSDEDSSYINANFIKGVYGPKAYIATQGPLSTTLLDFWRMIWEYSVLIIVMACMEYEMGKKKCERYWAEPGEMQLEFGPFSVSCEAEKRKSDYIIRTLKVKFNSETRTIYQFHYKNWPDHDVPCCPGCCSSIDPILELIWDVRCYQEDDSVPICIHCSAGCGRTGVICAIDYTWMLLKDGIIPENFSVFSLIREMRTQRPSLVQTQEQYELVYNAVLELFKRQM
Experiment: FlAsH fluorescence titration with purified Lyp-CCPGCC
Type: binding

Question: How did the pKd turn out when O=C1OC2(c3ccccc31)c1ccc(O)c([As]3SCCS3)c1Oc1c2ccc(O)c1[As]1SCCS1 [FlAsH] was run?
Answer: 7.17

Reference: article PMC2915760 (Bioorganic & medicinal chemistry, 2010)
